In one test the test system is WM1552C (Melanoma). The experiment in a line: combination Emax (second highest fraction inhibited in the dose matrix, 72 h); higher = more inhibition; extreme values may be limits of the assay. The gist of the method: (§1)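 After 24 hours at 37°C and 5% CO2 in 1536-well plates, cells in DMEM/F12 or RPMI plus 10% FBS received two-drug dose matrices for 72 hours. Viability came from CellTiter-Glo 2.0 luminescence and was scaled as inhibition, anchored at 0 by vehicle wells and at 1 by blank wells. Combination Emax is taken as the second-highest inhibition in the matrix, and Bliss excess as the observed combination effect less EA + EB − EA·EB, with EA and EB the single-agent effects.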

In test [1] the test system is HCC1395 (Breast Carcinoma). The test is described as above. The gist of the method:
as §1

Test [2] concerns NCI-H1651 (Lung Adenocarcinoma). The experiment in a line: Bliss excess, mean over the matrix (fraction); higher = more synergy. The gist of the method:
as §1

For another test, the system named is EB2 (Burkitt's Lymphoma). The test is described as above. The gist of the method: as §1
In the next test the test system is IM-9 (Non-Cancerous). Described as above. Put shortly: as §1
A further test relates to EW-7 (Ewing's Sarcoma). The test is described as above. The gist of the method:
as §1

For a further test, the system named is 769-P (Kidney Carcinoma). The test is described as above. Put shortly: as §1
Test [3] deals with KYSE-220 (Esophageal Squamous Cell Carcinoma). The description is as above. Put shortly: as §1
The subject of a further test is HCC70 (Breast Carcinoma). The description is as above. The gist of the method: as §1
The subject of test [4] is JHH-2 (Hepatocellular Carcinoma). The description is as above. The gist of the method:
as §1

SMILES strings stand for the structures.

Regarding `C=CCn1c(=O)c2cnc(Nc3ccc(N4CCN(C)CC4)cc3)nc2n1-c1cccc(C(C)(C)O)n1` [AZD1775] + CCc1c2c(nc3ccc(O)cc13)-c1cc3c(c(=O)n1C2)COC(=O)[C@]3(O)CC [SN-38] (first compound max 1 µM, partner max 0.3 µM), the “combination Emax” value with WM1552C (Melanoma) is 0.611; in test [1] it was 0.733. Moreover, the Bliss excess was -0.0342 in test [2]; -0.0507 with EB2 (Burkitt's Lymphoma); 0.0003 with IM-9 (Non-Cancerous); -0.0501 in the test with EW-7 (Ewing's Sarcoma); -0.0084 in the test with 769-P (Kidney Carcinoma); -0.0563 in test [3]. Further, the figures for the Bliss excess (in the test on HCC70 (Breast Carcinoma); in [4]) were -0.0528 and 0.106, respectively.

On to `C=CCn1c(=O)c2cnc(Nc3ccc(N4CCN(C)CC4)cc3)nc2n1-c1cccc(C(C)(C)O)n1` [AZD1775] + Nc1ccn([C@@H]2O[C@H](CO)[C@@H](O)C2(F)F)c(=O)n1 [Gemcitabine] (first compound max 1 µM, partner max 0.3 µM), for which the entries for the “combination Emax” value (in the test with WM1552C (Melanoma); in [1]) were 0.72 and 0.515, respectively. Also, the Bliss excess in [2] is -0.0104; in the test on EB2 (Burkitt's Lymphoma), 0.0066; in the test with IM-9 (Non-Cancerous) it was 0.0398; in the test with EW-7 (Ewing's Sarcoma), 0.0396; in test [3] it was 0.0029; with HCC70 (Breast Carcinoma), -0.0232. Moreover, in [4], the Bliss excess came to 0.0264.

Consider `CN(CCO)CC[C@H](CSc1ccccc1)Nc1ccc(S(=O)(=O)NC(=O)c2ccc(N3CCC([C@@H](O)c4ccccc4-c4ccc(Cl)cc4)CC3)cc2)cc1S(=O)(=O)C(F)(F)F` [AZD4320] + CS(=O)(=O)CCNCc1ccc(-c2ccc3ncnc(Nc4ccc(OCc5cccc(F)c5)c(Cl)c4)c3c2)o1 [Lapatinib] (first compound max 1 µM, 7x7, partner max 10 µM), for which the “combination Emax” value in the test on WM1552C (Melanoma) amounted to 0.571; in test [1], 0.96. Moreover, the Bliss excess is 0.0395 in [2]; -0.104 in the test with EB2 (Burkitt's Lymphoma); 0.117 with IM-9 (Non-Cancerous); 0.138 with EW-7 (Ewing's Sarcoma); -0.0042 with 769-P (Kidney Carcinoma); 0.0087 in test [3]. In addition, the Bliss excess with HCC70 (Breast Carcinoma) was 0.0536; in [4], 0.0312.

With `Cc1c2c(nn1C)CSCc1cc(n(C)n1)CSc1cc(c3ccccc3c1)OCCCc1c(C(=O)O)n(C)c3c-2c(Cl)ccc13` [AZD5991] + CC(=O)O[C@H]1C(=O)[C@@]2(C)[C@H]([C@H](OC(=O)c3ccccc3)[C@]3(O)C[C@H](OC(=O)[C@H](O)[C@@H](NC(=O)c4ccccc4)c4ccccc4)C(C)=C1C3(C)C)[C@]1(OC(C)=O)CO[C@@H]1C[C@@H]2O [Paclitaxel] (first compound max 1 µM, 7x7, partner max 3 µM), the “combination Emax” value was 0.989 in the test on WM1552C (Melanoma) and 0.933 in [1]. For the same compound, the Bliss excess in test [2] was -0.0345; with EB2 (Burkitt's Lymphoma), -0.083; in the test with IM-9 (Non-Cancerous) it was 0.0008; with EW-7 (Ewing's Sarcoma), 0.0625; in the test with 769-P (Kidney Carcinoma), -0.0044; in test [3], -0.006. Moreover, the Bliss excess in the test with HCC70 (Breast Carcinoma) turned out to be 0.0649; in test [4], 0.017.

Turning to `Cc1c2c(nn1C)CSCc1cc(n(C)n1)CSc1cc(c3ccccc3c1)OCCCc1c(C(=O)O)n(C)c3c-2c(Cl)ccc13` [AZD5991] + CS(=O)(=O)CCNCc1ccc(-c2ccc3ncnc(Nc4ccc(OCc5cccc(F)c5)c(Cl)c4)c3c2)o1 [Lapatinib] (first compound max 1 µM, 7x7, partner max 10 µM), the “combination Emax” value was found to be 0.693 with WM1552C (Melanoma) and 0.94 in [1]. Moreover, the Bliss excess in test [2] is -0.0015; in the test on EB2 (Burkitt's Lymphoma) it was -0.0287; with IM-9 (Non-Cancerous), 0.0138; in the test on EW-7 (Ewing's Sarcoma), 0.033; in the test with 769-P (Kidney Carcinoma), 0.0329; in [3], 0.0157. Also, the Bliss excess was 0.0603 in the test with HCC70 (Breast Carcinoma) and -0.063 in [4].

Regarding `Cc1c2c(nn1C)CSCc1cc(n(C)n1)CSc1cc(c3ccccc3c1)OCCCc1c(C(=O)O)n(C)c3c-2c(Cl)ccc13` [AZD5991] + Nc1ccn([C@@H]2O[C@H](CO)[C@@H](O)C2(F)F)c(=O)n1 [Gemcitabine] (first compound max 1 µM, 7x7, partner max 0.3 µM), the “combination Emax” value in the test with WM1552C (Melanoma) amounted to 0.899. Further, the Bliss excess in [2] was 0.0582; in the test with EB2 (Burkitt's Lymphoma), -0.0405; with IM-9 (Non-Cancerous), -0.0364; with EW-7 (Ewing's Sarcoma), -0.0158; in the test with 769-P (Kidney Carcinoma), -0.0637; in test [3], 0.0842. The Bliss excess in the test on HCC70 (Breast Carcinoma) is 0.0365; in test [4] it was -0.005.

For the compound `C[C@@H]1COCCN1c1cc(C2([S@](C)(=N)=O)CC2)nc(-c2ccnc3[nH]ccc23)n1` [AZD6738] + C1CC(C1)(C(=O)[O-])C(=O)[O-].N.N.[Pt+2] [Carboplatin] (first compound max 10 µM, 7x7, partner max 10 µM), the “combination Emax” value amounted to 0.564 in the test on WM1552C (Melanoma) and 0.586 in test [1]. In addition, the Bliss excess in [2] was -0.0327; with EB2 (Burkitt's Lymphoma) it was -0.0316; in the test with IM-9 (Non-Cancerous), 0.0081; in the test on EW-7 (Ewing's Sarcoma) it was -0.0315; in the test with 769-P (Kidney Carcinoma), -0.0233; in test [3], -0.0021. In addition, the results for the Bliss excess (in the test on HCC70 (Breast Carcinoma); in test [4]) were -0.0305 and -0.0309, respectively.

In the case of `C[C@@H]1COCCN1c1cc(C2([S@](C)(=N)=O)CC2)nc(-c2ccnc3[nH]ccc23)n1` [AZD6738] + Nc1ccn([C@@H]2O[C@H](CO)[C@@H](O)C2(F)F)c(=O)n1 [Gemcitabine] (first compound max 10 µM, 7x7, partner max 0.3 µM), the figures for the “combination Emax” value (in the test with WM1552C (Melanoma); in [1]) were 0.868 and 0.693, respectively. The Bliss excess in test [2] is 0.039; in the test with EB2 (Burkitt's Lymphoma) it was 0.0068; in the test with IM-9 (Non-Cancerous) it was -0.0189; with EW-7 (Ewing's Sarcoma) it was 0.0313; in the test with 769-P (Kidney Carcinoma), -0.0475; in [3] it was -0.0686. Besides, the Bliss excess worked out at 0.0904 with HCC70 (Breast Carcinoma) and 0.0069 in [4].

For `C[C@@H](Nc1cc(F)cc(F)c1)c1cc(C(=O)N(C)C)cc2c(=O)cc(N3CCOCC3)oc12` [AZD8186] + C1CN(CCC1(C(=O)N[C@@H](CCO)C2=CC=C(C=C2)Cl)N)C3=NC=NC4=C3C=CN4 [AZD5363] (first compound max 10 µM, 7x7, partner max 10 µM), the entries for the “combination Emax” value (in the test with WM1552C (Melanoma); in test [1]) were 0.339 and 0.414, respectively. The Bliss excess in [2] is -0.0302; in the test on EB2 (Burkitt's Lymphoma), -0.0292; in the test with IM-9 (Non-Cancerous), 0.0493; in the test with EW-7 (Ewing's Sarcoma), -0.03; in the test with 769-P (Kidney Carcinoma) it was -0.0459; in test [3], -0.0132. The values for the Bliss excess (with HCC70 (Breast Carcinoma); in test [4]) were -0.0152 and -0.0637, respectively.

With `C[C@@H](Nc1cc(F)cc(F)c1)c1cc(C(=O)N(C)C)cc2c(=O)cc(N3CCOCC3)oc12` [AZD8186] + CC(=O)c1c(C)c2cnc(Nc3ccc(N4CCNCC4)cn3)nc2n(C2CCCC2)c1=O [Palbociclib] (first compound max 10 µM, 7x7, partner max 10 µM), the “combination Emax” value in the test with WM1552C (Melanoma) is 0.352; in [1] it was 0.382. The Bliss excess is -0.0192 in [2]; 0.0045 in the test on EB2 (Burkitt's Lymphoma); 0.112 in the test on IM-9 (Non-Cancerous); 0.045 in the test on EW-7 (Ewing's Sarcoma); 0.0354 with 769-P (Kidney Carcinoma); -0.0494 in test [3]. In addition, the Bliss excess with HCC70 (Breast Carcinoma) was 0.0225; in test [4], -0.0282.

(Values after the supplement of paper PMC11061612.)
